Experiment: in vitro
Conditions: human, hela cells, % viability

Structure (SMILES)	viability at 28.5 h, 10 µM [%]
Nc1ncnc(Nc2ccc(Nc3ccccc3)cc2)c1[N+](=O)[O-] [CBK267347]	88.9
CC(=O)c1cc(CCCO)n(Cc2ccco2)c1C [CBK022013]	115
Nc1c(-c2cccc(C(F)(F)F)c2)cnc2cccnc12 [CBK081187]	88.7
Nc1ccn([C@H]2C[C@@H](O)[C@@H](CO)O2)c(=S)n1 [CBK201187]	91.4
COc1ccc(OC)c(-c2nc(Nc3ccc(Cl)cc3Cl)sc2CC(=O)O)c1 [CBK264175]	103
CC(C)NC(=O)N1CCCC2(C1)NCCc1c2[nH]c2ccccc12 (centres unmarked) [CBK046952]	86.7
Cc1nccn1CCNC(=O)c1cc(C2CCCCC2)no1 [CBK283295]	89.6
CC1(C)Cc2c(ccc3ccccc23)C(CCN2CCCCC2)=N1 [CBK261746]	116
O=C(NC1Cc2ccccc2C1)c1nccc2ccccc12 [CBK200356]	97
CCC(CC)C(=O)Nc1nc(OC)cnc1-c1ccc(OCOC)cc1 [CBK145207]	108
O=C(NC(=S)Nc1cccc2ncccc12)c1ccc(N2CCOCC2)c([N+](=O)[O-])c1 [CBK267608]	87.8
O=C(NCC1(O)CCSCC1)c1cc2ccccc2[nH]1 [CBK305199]	94.9
O=C(CSc1ccc(-c2ccc(-n3ccnc3)cc2)nn1)NCc1ccco1 [CBK287717]	62.2
Cc1ccc(/C=C(\NC(=O)c2ccccc2)C(=O)N2CCCC2C(=O)O)cc1 (centres unmarked) [CBK265649]	87.6
O=C(Cc1ccsc1)N1CCC2(CCN(Cc3ccccc3)CC2)C1 [CBK136742]	89.8
Cn1ccc(CN2CCOC(c3nccs3)C2)cc1=O (centres unmarked) [CBK304921]	88.8
CN(C)CCN(C)Cc1ccc2c(c1)Cc1ccccc1-2 [CBK261856]	93.3
CC(=O)N1CCc2sccc2C1c1ccc(NC(=O)c2ccccc2F)cc1 (centres unmarked) [CBK286433]	84.2
O=C(O)C(c1c[nH]c2ccccc12)N1CCN(S(=O)(=O)c2ccccc2)CC1 (centres unmarked) [CBK286643]	83.6
CCOCCn1c(CN2CCCCC2)nc2c1c(=O)n(C)c(=O)n2C [CBK306028]	85.8
O=C1NCC2(C/C=C/CCOc3ccccc31)CCN(C(=O)CCc1ccccc1)CC2 [CBK292017]	71.2
CCc1cc2c(=O)c(-c3nc4ccccc4s3)coc2c(CN2CCCCC2)c1O [CBK262284]	86.1
CC(C)(C)OC(=O)N1CCN(c2cncc(OC3CSCc4ccccc43)n2)CC1 (centres unmarked) [CBK172354]	105

Structure (SMILES)	viability at 28.5 h, 10 µM [%]
Cc1ccccc1C(c1cnccn1)N(C)C(=O)C1CCN(S(=O)(=O)C(C)C)CC1 (centres unmarked) [CBK060242]	101
O=C(CCCN1C(=O)c2cccc3cccc(c23)C1=O)NCc1cccnc1 [CBK262190]	73.9
COc1cc(C)c2c(N)c(C(C)=O)sc2n1 [CBK115336]	94
CC(C)[C@@H](N)C(=O)N1CC[C@@H]2NC(=O)[C@@H](Cc3ccccc3)NC(=O)C3(C/C=C/C[C@H]2C1)CCOCC3 [CBK292201]	112
Cn1nc(C2CCN(C(=O)C3CCCC3)CC2)c2cccnc21 [CBK284899]	101
CCc1nc2ccc(C(=O)N3CCCCC3)cn2c1N(C)C(=O)c1cccc(OC)c1 [CBK146392]	113
COc1ccc(-c2cc(C(=O)NCc3ccc4c(c3)OCO4)cnc2-c2ccccc2)cn1 [CBK037571]	97.9
CC(Oc1ccc(Cl)cc1Cl)C(=O)Nc1sc2c(c1C(N)=O)CCCCCC2 (centres unmarked) [CBK265394]	85.8
N#CCCSCc1ccc(C(=O)O)o1 [CBK265858]	115
Cc1nn(CC(=O)N(C)Cc2cnn(C)c2)c(=O)c2ccccc12 [CBK305701]	103
O=C(CS(=O)(=O)Cc1ccccc1)Nc1ccc(S(=O)(=O)N2CCCCCC2)cc1 [CBK266653]	98.8
FC(F)(F)c1ccc(N2CCNCC2)nc1OCCOc1ccc2ccccc2c1 [CBK200002A]	92.1
O=C(CSc1ccc2ccccc2c1)Nc1ccc(Cl)c(C(=O)O)c1 [CBK268239]	103
CCn1cc(CN2CCC(c3cc(Cc4cccc(OC)c4)cc(C)n3)CC2)c(C)n1 [CBK285671]	89.2
CC(=O)Nc1ccc(CCNC(=O)NCc2nc(C3CC3)no2)cc1 [CBK306221]	96.1
Cc1nc(C(F)(F)F)ccc1COC(=O)N1CCOCC1 [CBK200122]	85.9
COc1cccc(OCC(O)CN2CCN(Cc3ccccc3)CC2)c1 (centres unmarked) [CBK074856C]	108
CC(=O)NS(=O)(=O)c1ccc(NC(=N)Nc2nc(C)cc(C)n2)cc1 [CBK263117C]	90.1
Cc1cc(C(=O)Nc2nncs2)c2ccc(F)cc2n1 [CBK297738]	85.3
COc1ccc(-c2nnc(NC(=O)C3CCCCC3)o2)cc1 [CBK287592]	83.3
Cc1cc(C)c(C)c(S(=O)(=O)NCc2ccc(C(=O)Nc3ccncc3)cc2)c1C [CBK267193]	90.5
Clc1cncc(-c2cc3ccccc3[nH]2)n1 [CBK154865]	101
COCC(=O)N1CCN2C(=O)[C@@H]3C[C@@H](OCc4ccc(F)cc4)CN3C(=O)[C@@H]2C1 [CBK289605]	99.1

Structure (SMILES)	viability at 28.5 h, 10 µM [%]
CC1Cc2cc(CCC(=O)N3CCCc4c(cnn4C)C3)ccc2O1 (centres unmarked) [CBK282882]	100
CC1(C)Cc2ccccc2C(NC(Cc2ccccc2)C(=O)O)=N1 (centres unmarked) [CBK262533]	107
CC(=O)NCCC1CCN(c2nc(C(C)(C)C)nc3c2cnn3C)CC1 [CBK307364]	96.7
CS(=O)(=O)Nc1ccccc1C(=O)NCCCN1CCOCC1 [CBK269745]	112
Cc1cc(NC(=O)Cc2ccsc2)c2ccccc2n1 [CBK116259]	89.4
Cc1ccc2nc(-c3ccc(N4C(=O)CC(N5CCC(N6CCCCC6)CC5)C4=O)cc3)sc2c1 (centres unmarked) [CBK265315]	114
CCC(C)NC(=O)C1(Cc2ccc(-c3cc(F)ccc3OC)cc2)CCOCC1 (centres unmarked) [CBK285539]	102
CC1Cc2cc(-c3cc4ccccn4c3)ccc2N1S(C)(=O)=O (centres unmarked) [CBK285227]	90.3
CNC(=O)CCc1ccccc1NC(=O)NCCSc1ncn[nH]1 [CBK307253]	89.9
Cn1nccc1NS(=O)(=O)c1ccc(F)cc1 [CBK050484]	106
CC(C)OC(=O)N1CCC(N(C)Cc2ccc(-c3ccc(S(C)(=O)=O)cc3)cn2)CC1 [CBK165581T]	90.8
COCC(=O)N1CCc2sccc2C1c1ccc(NCc2ccccc2F)cc1 (centres unmarked) [CBK286446]	96.6
Cc1ccccc1C1NS(=O)(=O)NC1=N (centres unmarked) [CBK263852]	96.5
O=C(Cc1ccsc1)NCCn1nc(-c2cccs2)ccc1=O [CBK283842]	96.5
O=[N+]([O-])c1cc([N+](=O)[O-])c2cccnc2c1NNc1nncc2ccccc12 [CBK110409]	85.1
CC1CCCCN1S(=O)(=O)c1ccc(NC(=O)CCn2cnc3ccccc3c2=O)cc1 (centres unmarked) [CBK268495]	95.5
Cc1onc(-c2ccccc2)c1CNC(=O)c1ccco1 [CBK144074]	90.5
COc1ccc(CCNC(=S)N2CCN(S(C)(=O)=O)CC2)cc1OC [CBK266917]	115
COc1ccccc1-c1nnc(NC(=O)Cc2cccs2)s1 [CBK287361]	93.5
Cc1ccc(C2=N/C(=C/c3ccc(OS(=O)(=O)c4ccc(C)c([N+](=O)[O-])c4)cc3)C(=O)O2)cc1 [CBK264647]	99.1
Cc1ncccc1COC(=O)Nc1cccnc1 [CBK138237]	94.3
CCN(CC)C(=O)C1CCCN(C(=O)Nc2cccc(OC)c2)C1 (centres unmarked) [CBK005159]	92.9
Cc1csc2c(N3CCCC3CC(=O)c3cnn(C)c3)ncnc12 (centres unmarked) [CBK304429]	81.8

Structure (SMILES)	viability at 28.5 h, 10 µM [%]
CC(C)N1CCC(CNC(=O)Cn2ccc3ccc(F)cc32)CC1 [CBK282571]	89.9
CCn1ccnc1CN1CCCC(CCc2ccccc2F)C1 (centres unmarked) [CBK307173]	99.3
CC1CCC(C(N)=O)CN1C(=O)c1cc(Br)c[nH]1 (centres unmarked) [CBK305769]	94
COc1cc2c(cc1OC)CN(C(=O)Cn1cc(C)c(=O)[nH]c1=O)CC2 [CBK122745]	92.4
COc1ncccc1C(=O)N1CCc2ccccc2C1 [CBK200336]	96.9
Cn1c(=O)oc2cc(S(=O)(=O)NCc3ccccc3)ccc21 [CBK267568]	90.8
COCCNC(=O)c1cc(-c2ccc(C)s2)nc2c1cnn2C(C)C [CBK305051]	105
COC(=O)Cn1c(-c2ccc(OC)cc2)cc2cccnc21 [CBK282268]	82.7
C(=C\c1nccnc1OCCn1cccc1)/c1ccccc1 [CBK106884]	94
C[C@@H]1C[C@H](C(F)(F)F)n2nc(C3CCCN3C(=O)C3CC3)cc2N1 (some centres unmarked) [CBK285432]	90.6
Cc1ccc(S(=O)(=O)N(C)CC(=O)OCC(=O)c2ccccc2)cc1 [CBK264329]	95.1
c1ccc(CCNc2nc(-c3cccnc3)nc3ccccc23)cc1 [CBK263672]	105
Cc1oc2c(c1C(=O)NCCSc1nncn1C)C(=O)CCC2 [CBK306589]	92.5
Cc1nc2ccc(NC(=O)CC(c3ccccc3)c3ccccc3)cc2s1 [CBK293988]	90
Cc1cccc(C(=O)N2CCCCC2C)c1 (centres unmarked) [CBK074052]	118
Cc1cc(=O)c2ccccc2n1CC(=O)N1CCC2(CCO2)CC1 [CBK306809]	88.5
CN1CCN(S(=O)(=O)c2cccc(C(F)(F)F)c2)CC1 [CBK062425]	103
CN1CCN(C(=O)Nc2cccc(-c3nc(-c4ccc(C#N)cc4)cnc3N)c2)CC1 [CBK116251]	91.7
CC(C)NC(=O)Nc1ccc(C(=O)N(CC#N)C2CC2)cc1 [CBK306120]	90.5
CNC(=O)CC1SC(NC2CC3C=CC2C3)=NC1=O (centres unmarked) [CBK047491]	90.7

— publication PMC12040169 (PLOS Biology, 2025)
